From PMC5228037, “Discovery and Mechanistic Characterization of Selective Inhibitors of H2S-producing Enzyme: 3-Mercaptopyruvate Sulfurtransferase (3MST) Targeting Active-site Cysteine Persulfide” (Scientific Reports, 2017)
Entries after “also recorded” stand apart in the source; their conditions may differ.

How the values were obtained:
non-persulfurated 3MST = target: T1, non-persulfurated 3MST (Mus musculus, UniProt Q99J99); experiment: ITC analysis with non-persulfurated 3MST; format: binding; details: 3MP-untreated 3MST
T1 construct: The recombinant full-length wild-type mouse 3MST; made in house; host or cells: E. coli JM109 (DE3)
T1 sequence (Q99J99 1-297): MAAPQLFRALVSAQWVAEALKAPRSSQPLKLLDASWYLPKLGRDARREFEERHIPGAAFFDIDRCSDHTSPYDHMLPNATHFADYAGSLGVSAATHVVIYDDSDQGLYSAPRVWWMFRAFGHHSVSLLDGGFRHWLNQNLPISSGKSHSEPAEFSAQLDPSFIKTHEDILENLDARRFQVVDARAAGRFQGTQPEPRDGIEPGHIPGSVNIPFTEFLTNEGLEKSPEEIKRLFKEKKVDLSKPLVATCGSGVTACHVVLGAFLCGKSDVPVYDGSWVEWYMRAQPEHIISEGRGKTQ
Description: The recombinant full-length wild-type mouse 3MST and mutant m3MST (C65S/C255S/C264S) were expressed as an N-terminal His-tagged protein ([…]-3MST) in E. coli JM109 (DE3). The pET44a(+) vector (Novagen) was used as an expression vector. Cells were grown at 37 °C in LB broth (Miller) or 2 × YT broth containing 0.1 g/L ampicillin to OD600 about 0.5, and then protein expression was induced by adding IPTG (final conc. 0.5 mM (LB), 1 mM (2 × YT)). Cells were cultured overnight at 18–20 °C with shaking and harvested at 4 °C by centrifugation at 9,000 rpm for 5 min. Harvested cells were resuspended in lysis buffer containing 0.1 M HEPES-NaOH pH 8, 0.5 M NaCl, 0% or 10% glycerol, 0.5 mM TCEP, 1 mM PMSF, and 1% EtOH, and disrupted by sonication. Cell lysis solutions were centrifuged at 20,000 rpm for 20 min. […] The proteins were further purified on HisTrap HP (GE Healthcare) by increasing the imidazole concentration in buffer containing 0.02 M HEPES pH 8, 0.15 M NaCl, 10% glycerol, and 0.05 mM TCEP until proteins were eluted. Then the His-tag was removed by GST-fusion HRV 3 C protease digestion. […]

[1] = Reactivity test toward H2S (3rd screening, cysteine-activated H2S donor); details: 40 μM H2S donor, 1 mM L-cysteine, 37 °C 60 min, mean±S.D. n = 4
Description: Reactivity of the hit compounds toward H2S was next examined. The final concentration of the compounds was 10 or 30 μM. The assay protocol was as follows. Compounds were diluted with HSip-1 and cysteine-activated H2S donor[22] solution to 20 or 60 μM solution (15.4% DMSO) with a Multi-Drop and a pipette. Next, 2 mM L-cysteine solution (10 μL, final concentration: 1 mM L-cysteine) was dispensed into the plates (total volume was 20 μL, DMSO 7.7%), and the plates were incubated at 37 °C for 1 hr. The fluorescence of HSip-1 was measured (λex = 490 nm, λem = 510 nm) with a microplate reader. Background control wells (i.e., no addition wells instead of addition of the cysteine-activated H2S donor, n = 16) were also prepared for all plates.
Supplementary Table S2. Inhibition (%) of fluorescence increase caused by H2S in the 3rd […]
Compound 10 µM Compound 30 µM Compound 10 µM Compound 30 µM
All data are presented as the mean±S.D. (n = 4). Conditions: Mixtures of 1 μM HSip-1, 10 or 30 μM test compound, 40 μM H2S donor, 1 mM ʟ-cysteine, and 7.7% DMSO (v/v) were incubated at 37 °C for 60 min. The control with DMSO alone instead of DMSO solution of test compound was taken as 0% inhibition, and the sample without H2S donor was taken as 100% inhibition. […]
directly react with H2S: For this assay, we synthesized a reported small-molecular H2S donorS2 that produces H2S by reacting with cysteine. Each compound (10 or 30 μM) was dissolved in a solution (30 mM HEPES buffer (pH 7.4)) containing 1 μM HSip-1, 40 μM H2S donor, 1 mM ʟ-cysteine and 7.7% (v/v) DMSO as a cosolvent, and the solution was incubated at 37 °C for 60 min. Then, the fluorescence intensities were measured to evaluate the amount of H2S in the solution […]

| SMILES | Binding to non-persulfurated 3MST (ITC heat release) (non-persulfurated 3MST) | Inhibition (%) of fluorescence increase caused by H2S in the 3rd screening ([1]; 10 μM compound) | Inhibition (%) of fluorescence increase caused by H2S in the 3rd screening ([1]; 30 μM compound) |
| --- | --- | --- | --- |
| NC(=O)c1ccsc1NC(=O)CSc1nc2ccccc2c(=O)[nH]1 [compound 1] | no heat release; also recorded: do not bind | 0.2±3.5% | 1.0±2.4% |
| Cc1sc2nc(SCC(=O)c3ccc(O)cc3O)[nH]c(=O)c2c1C [compound 2] | – | 6.5±1.8% | 19.6±15.3% |
| Cc1cc(=O)[nH]c(SCC(=O)c2cccc3ccccc23)n1 [compound 3] | no heat release; also recorded: do not bind | -3.2±5.0% | -3.5±3.9% |
| O=C(O)c1cccc(NS(=O)(=O)c2ccccc2)c1 [compound 5] | – | 2.5±4.5% | -1.2±16.3% |
